Assay results taken from BindingDB's records for patent US10392346 (Topivert Pharma, 2019).

What was measured:
[1] = target: Proto-oncogene tyrosine-protein kinase Src (Homo sapiens, UniProt P12931); assay: Enzyme Inhibition
Protocol: The relevant enzyme (3000 ng/mL or 2000 ng/mL respectively, 2.5 μL) is incubated with the test compound (either 1 μg/mL, 0.1 μg/mL, 0.01 μg/mL, or 0.001 μg/mL, 2.5 μL each) for 2 hr at RT. The FRET peptides (8 μM, 2.5 μL), and appropriate ATP solutions (2.5 μL, 800 μM for c-Src, and 60 μM ATP for Syk) are then added to the enzymes/compound mixtures and the mixture incubated for 1 hr. Development reagent (protease, 5 μL) is added for 1 hr prior to detection in a fluorescence microplate reader (Varioskan Flash, ThermoFisher Scientific).

[2] = target: Glycogen synthase kinase-3 alpha (Homo sapiens, UniProt P49840); assay: Enzyme Inhibition
Protocol: In addition, the concentrations of test compound employed are either 10 μg/mL, 1 μg/mL, 0.1 μg/mL, or 0.01 μg/m: Method 1: The inhibitory activities of test compounds against the p38 MAPKα isoform (MAPK14: Invitrogen) are evaluated indirectly by determining the level of activation/phosphorylation of the down-stream molecule, MAPKAP-K2. The p38 MAPKα protein (80 ng/mL, 2.5 μL) is mixed with the test compound (2.5 μL of either 4 μg/mL, 0.4 μg/mL, 0.04 μg/mL or 0.004 μg/mL) for 2 hr at RT. […] The mixture is incubated for 1 hr at RT. Development reagent (protease, 5 μL) is added for 1 hr prior to detection in a fluorescence microplate reader (Varioskan Flash, ThermoFisher Scientific).

Chain of Proto-oncogene tyrosine-protein kinase Src (P12931 2-536 limits assumed): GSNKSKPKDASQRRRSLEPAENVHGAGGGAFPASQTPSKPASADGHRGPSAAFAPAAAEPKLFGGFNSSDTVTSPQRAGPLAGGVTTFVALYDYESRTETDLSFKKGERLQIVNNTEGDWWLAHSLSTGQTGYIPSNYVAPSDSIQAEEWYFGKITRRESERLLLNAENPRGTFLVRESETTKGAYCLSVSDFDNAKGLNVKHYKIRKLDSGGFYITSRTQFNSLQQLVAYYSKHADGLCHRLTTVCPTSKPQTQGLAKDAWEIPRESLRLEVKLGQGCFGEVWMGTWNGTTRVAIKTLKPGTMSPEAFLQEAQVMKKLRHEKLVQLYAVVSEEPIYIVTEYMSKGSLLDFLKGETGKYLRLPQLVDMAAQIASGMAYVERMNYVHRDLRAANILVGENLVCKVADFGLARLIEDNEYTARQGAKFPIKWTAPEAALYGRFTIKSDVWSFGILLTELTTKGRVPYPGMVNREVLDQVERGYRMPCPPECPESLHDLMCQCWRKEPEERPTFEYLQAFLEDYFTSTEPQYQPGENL
Chain of Glycogen synthase kinase-3 alpha (P49840 whole entry, canonical isoform): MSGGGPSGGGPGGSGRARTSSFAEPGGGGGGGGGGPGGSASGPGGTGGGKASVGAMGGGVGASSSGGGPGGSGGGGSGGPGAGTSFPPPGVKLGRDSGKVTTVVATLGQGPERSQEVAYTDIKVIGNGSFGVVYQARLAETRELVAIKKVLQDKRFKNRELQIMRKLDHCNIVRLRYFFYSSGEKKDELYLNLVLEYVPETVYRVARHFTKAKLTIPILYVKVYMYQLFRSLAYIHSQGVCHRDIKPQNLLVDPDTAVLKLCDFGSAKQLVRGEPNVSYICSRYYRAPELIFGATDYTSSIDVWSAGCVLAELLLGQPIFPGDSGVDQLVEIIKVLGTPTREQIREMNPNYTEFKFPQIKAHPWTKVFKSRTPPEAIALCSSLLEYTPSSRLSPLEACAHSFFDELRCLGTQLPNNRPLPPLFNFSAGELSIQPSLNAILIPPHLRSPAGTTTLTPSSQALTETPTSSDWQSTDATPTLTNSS

Row | IC50 [1] | IC50 [2] | SMILES
1 | 20 nM | 9.19 µM | COc1cc(Nc2cc(Oc3ccc(NC(=O)Nc4cc(C(C)(C)C)cc(NS(C)(=O)=O)c4OC)c4ccccc34)ccn2)ccc1C(=O)N(C)CCCN1CCS(=O)(=O)CC1 [US10392346, Example 17(ah)]
2 | 16 nM | 4 µM | COc1cc(Nc2cc(Oc3ccc(NC(=O)Nc4cc(C(C)(C)C)cc(N[S+](C)[O-])c4OC)c4ccccc34)ccn2)ccc1C(=O)NCCN1CCN(C)CC1 (stereo unspecified) [US10392346, Example 17(a)]
3 | 17 nM | 2.75 µM | COc1cc(Nc2cc(Oc3ccc(NC(=O)Nc4cc(C(C)(C)C)cc(NS(C)(=O)=O)c4OC)c4ccccc34)ccn2)ccc1C(=O)N(C)CCCN1CC[S+]([O-])CC1 [US10392346, Example 17(ag)]
